Assay results from patent US12473296B2, “Perk inhibiting compounds” (HiberCell, Inc., priority 2019, dated 2025).

Columns and labels:
[1] = molecular target: EIF2AK3 (PERK) catalytic domain (amino acids 536-1116) (Homo sapiens (Human), UniProt Q9NZJ5); experiment: PERK in vitro activity assay (isolated), TR-FRET kinase assay; conditions: isolated PERK enzyme, 1.5 μM ATP, GFP-eIF2a substrate; read-out: Biochemical IC50
Summary of the method: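 Human PERK catalytic domain (aa 536-1116) with 100-200 nM GFP-eIF2a in 50 mM HEPES pH 7.5, 10 mM MgCl2, 1.0 mM EGTA, 0.01% Brij-35; enzyme-started reaction run 45 min at room temperature. Stopped with 10 mM EDTA, 2 nM Tb-anti-phospho-eIF2a added for 90 min; IC50 from TR-FRET ratio by 4-parameter logistic fit.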

[2] = molecular target: PERK (Homo sapiens (Human), UniProt Q9NZJ5); experiment: PERK cellular assay (TR-FRET, HEK293-EGFP-eIF2α cells, tunicamycin-induced ER stress); format: cell-based; conditions: tunicamycin 2 hours, read-out: Cellular IC50 (μM) (EIF2a)
Chain of PERK (Q9NZJ5 30-1116): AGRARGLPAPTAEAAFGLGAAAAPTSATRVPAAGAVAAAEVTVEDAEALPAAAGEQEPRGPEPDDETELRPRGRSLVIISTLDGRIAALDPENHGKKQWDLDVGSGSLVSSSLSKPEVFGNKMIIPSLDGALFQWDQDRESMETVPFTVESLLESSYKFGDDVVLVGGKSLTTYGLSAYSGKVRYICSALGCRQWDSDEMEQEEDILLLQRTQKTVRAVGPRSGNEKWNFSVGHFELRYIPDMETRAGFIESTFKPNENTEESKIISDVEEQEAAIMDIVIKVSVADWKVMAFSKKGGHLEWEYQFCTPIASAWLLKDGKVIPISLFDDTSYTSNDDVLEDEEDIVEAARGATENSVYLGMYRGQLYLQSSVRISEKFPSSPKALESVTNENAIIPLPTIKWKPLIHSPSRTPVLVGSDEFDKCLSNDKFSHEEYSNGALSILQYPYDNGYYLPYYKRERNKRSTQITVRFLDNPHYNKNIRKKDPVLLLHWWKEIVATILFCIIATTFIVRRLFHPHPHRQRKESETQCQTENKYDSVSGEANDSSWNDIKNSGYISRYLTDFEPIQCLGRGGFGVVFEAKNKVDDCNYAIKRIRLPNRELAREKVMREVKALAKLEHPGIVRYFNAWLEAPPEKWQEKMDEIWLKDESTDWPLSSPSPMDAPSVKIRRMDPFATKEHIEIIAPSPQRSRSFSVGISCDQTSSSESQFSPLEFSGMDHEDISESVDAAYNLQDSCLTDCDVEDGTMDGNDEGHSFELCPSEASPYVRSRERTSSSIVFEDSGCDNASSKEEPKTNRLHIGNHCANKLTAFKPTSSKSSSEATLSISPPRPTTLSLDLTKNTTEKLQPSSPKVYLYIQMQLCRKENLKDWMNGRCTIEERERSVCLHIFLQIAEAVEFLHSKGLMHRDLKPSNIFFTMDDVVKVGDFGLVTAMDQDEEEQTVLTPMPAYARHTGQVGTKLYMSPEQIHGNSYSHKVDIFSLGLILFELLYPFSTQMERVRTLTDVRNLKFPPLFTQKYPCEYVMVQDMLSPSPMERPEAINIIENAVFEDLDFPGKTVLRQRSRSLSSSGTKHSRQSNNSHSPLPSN
Summary of the method: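 Cells pre-incubated with inhibitor 30 min at 37 °C, then ER stress induced with […] tunicamycin for 2 h. TR-FRET read on lysates; ratio normalized to DMSO control as percent inhibition over a 10-point, 3-fold dilution series; IC50 from 4-parameter logistic fit.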

Chain of EIF2AK3 (PERK) catalytic domain (amino acids 536-1116) (Q9NZJ5 536-1116): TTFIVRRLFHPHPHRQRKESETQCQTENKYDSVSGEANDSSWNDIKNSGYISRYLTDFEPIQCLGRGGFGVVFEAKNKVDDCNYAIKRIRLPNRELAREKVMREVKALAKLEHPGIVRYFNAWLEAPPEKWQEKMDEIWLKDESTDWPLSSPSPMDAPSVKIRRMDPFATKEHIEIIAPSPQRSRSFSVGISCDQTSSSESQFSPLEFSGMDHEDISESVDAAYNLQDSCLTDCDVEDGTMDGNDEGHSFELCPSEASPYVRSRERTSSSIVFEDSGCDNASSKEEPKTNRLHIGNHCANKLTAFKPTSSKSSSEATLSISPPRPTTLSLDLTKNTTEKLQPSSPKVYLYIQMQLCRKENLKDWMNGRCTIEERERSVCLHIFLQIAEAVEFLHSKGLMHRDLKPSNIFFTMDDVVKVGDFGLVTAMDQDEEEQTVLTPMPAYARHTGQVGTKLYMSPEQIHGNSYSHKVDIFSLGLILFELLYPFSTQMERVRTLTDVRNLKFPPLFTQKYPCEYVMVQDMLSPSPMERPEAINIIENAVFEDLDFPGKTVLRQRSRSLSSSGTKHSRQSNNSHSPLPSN

Structure (SMILES) | IC50 [1] [nM] | IC50 [2] [µM]
COc1cccc(CC(=O)Nc2ccc(-c3cnc(N)c(C(=O)NC(C)C)c3)c(C)c2)c1 [Example 193, 2-amino-N-isopropyl-5-(4-(2-(3-methoxyphenyl)acetamido)-2-methylphenyl) nicotinamide] | 51 to 100 | 0.501 to 1
COc1ccc(CC(=O)Nc2ccc(-c3cnc(N)c(C(=O)NC(C)C)c3)c(C)c2)cc1 [Example 194, 2-amino-N-isopropyl-5-(4-(2-(4-methoxyphenyl)acetamido)-2-methylphenyl) nicotinamide] | 501 to 1000 | 2 to 3
Cc1ccc(CC(=O)Nc2ccc(-c3cnc(N)c(C(=O)NC(C)C)c3)c(C)c2)cc1 [Example 197, 2-amino-N-isopropyl-5-(2-methyl-4-(2-(p-tolyl)acetamido)phenyl)nicotinamide] | 101 to 250 | 1 to 2
Cc1cc(NC(=O)Cc2ccccc2Cl)ccc1-c1cnc(N)c(C(=O)NC(C)C)c1 [Example 198, 2-amino-5-(4-(2-(2-chlorophenyl)acetamido)-2-methylphenyl)-N-isopropylnicotinamide] | 26 to 50 | 0.501 to 1
Cc1cc(NC(=O)Cc2cccc(Cl)c2)ccc1-c1cnc(N)c(C(=O)NC(C)C)c1 [Example 199, 2-amino-5-(4-(2-(3-chlorophenyl)acetamido)-2-methylphenyl)-N-isopropylnicotinamide] | 26 to 50 | 0.101 to 0.25
Cc1cc(NC(=O)Cc2ccc(Cl)cc2)ccc1-c1cnc(N)c(C(=O)NC(C)C)c1 [Example 200, 2-amino-5-(4-(2-(4-chlorophenyl)acetamido)-2-methylphenyl)-N-isopropylnicotinamide] | 501 to 1000 | 0.501 to 1
Cc1cc(NC(=O)Cc2ccccc2C(F)(F)F)ccc1-c1cnc(N)c(C(=O)NC(C)C)c1 [Example 201, 2-amino-N-isopropyl-5-(2-methyl-4-(2-(2-(trifluoromethyl)phenyl)acetamido)phenyl)nicotinamide] | 51 to 100 | 0.501 to 1
Cc1cc(NC(=O)Cc2cccc(C(F)(F)F)c2)ccc1-c1cnc(N)c(C(=O)NC(C)C)c1 [Example 202, 2-amino-N-isopropyl-5-(2-methyl-4-(2-(3-(trifluoromethyl)phenyl)acetamido)phenyl)nicotinamide] | 51 to 100 | 0.101 to 0.25
Cc1cc(NC(=O)Cc2ccc(C(F)(F)F)cc2)ccc1-c1cnc(N)c(C(=O)NC(C)C)c1 [Example 203, 2-amino-N-isopropyl-5-(2-methyl-4-(2-(4-(trifluoromethyl)phenyl)acetamido)phenyl) nicotinamide] | 2000 to 3000 | 1 to 2
CCc1cccc(CC(=O)Nc2ccc(-c3cnc(N)c(C(=O)NC(C)C)c3)c(C)c2)c1 [Example 205, 2-amino-5-(4-(2-(3-ethylphenyl)acetamido)-2-methylphenyl)-N-isopropylnicotinamide] | 1 to 25 | 0.101 to 0.25
CCc1ccc(CC(=O)Nc2ccc(-c3cnc(N)c(C(=O)NC(C)C)c3)c(C)c2)cc1 [Example 206, 2-amino-5-(4-(2-(4-ethylphenyl)acetamido)-2-methylphenyl)-N-isopropylnicotinamide] | 251 to 500 | 2 to 3
Cc1cc(NC(=O)Cc2cccc3ccccc23)ccc1-c1cnc(N)c(C(=O)NC(C)C)c1 [Example 207, 2-amino-N-isopropyl-5-(2-methyl-4-(2-(naphthalen-1-yl)acetamido)phenyl)nicotinamide] | 1 to 25 | 0.251 to 0.5
Cc1cc(NC(=O)Cc2ccc3ccccc3c2)ccc1-c1cnc(N)c(C(=O)NC(C)C)c1 [Example 208, 2-amino-N-isopropyl-5-(2-methyl-4-(2-(naphthalen-2-yl)acetamido)phenyl)nicotinamide] | 26 to 50 | 0.101 to 0.25
Cc1cc(NC(=O)Cc2ccc3ncccc3c2)ccc1-c1cnc(N)c(C(=O)NC(C)C)c1 [Example 209, 2-amino-N-isopropyl-5-(2-methyl-4-(2-(quinolin-6-yl)acetamido)phenyl)nicotinamide] | 101 to 250 | 1 to 2
Cc1cc(NC(=O)Cc2cncc3ccccc23)ccc1-c1cnc(N)c(C(=O)NC(C)C)c1 [Example 210, 2-amino-N-isopropyl-5-(4-(2-(isoquinolin-4-yl)acetamido)-2-methylphenyl) nicotinamide] | 51 to 100 | 1 to 2
Cc1cc(NC(=O)Cc2cccc3cnccc23)ccc1-c1cnc(N)c(C(=O)NC(C)C)c1 [Example 211, 2-amino-N-isopropyl-5-(4-(2-(isoquinolin-5-yl)acetamido)-2-methylphenyl) nicotinamide] | 251 to 500 | 2 to 3
Cc1cc(NC(=O)Cc2cccc3ncccc23)ccc1-c1cnc(N)c(C(=O)NC(C)C)c1 [Example 212, 2-amino-N-isopropyl-5-(2-methyl-4-(2-(quinolin-5-yl)acetamido)phenyl)nicotinamide] | 1000 to 2000 | > 5
Cc1cc(NC(=O)CC2CC2)ccc1-c1cnc(N)c(C(=O)NC(C)C)c1 [Example 213, 2-amino-5-(4-(2-cyclopropyl-acetamido)-2-methylphenyl)-N-isopropylnicotinamide] | 1000 to 2000 | > 5
Cc1cc(NC(=O)CC2CCC2)ccc1-c1cnc(N)c(C(=O)NC(C)C)c1 [Example 214, 2-amino-5-(4-(2-cyclobutylacetamido)-2-methylphenyl)-N-isopropylnicotinamide] | 251 to 500 | > 5
Cc1cc(NC(=O)CC2CCCC2)ccc1-c1cnc(N)c(C(=O)NC(C)C)c1 [Example 215, 2-amino-5-(4-(2-cyclopentylacetamido)-2-methylphenyl)-N-isopropylnicotinamide] | > 5000 | > 5
Cc1cc(NC(=O)CC2CCCCC2)ccc1-c1cnc(N)c(C(=O)NC(C)C)c1 [Example 216, 2-amino-5-(4-(2-cyclohexylacetamido)-2-methylphenyl)-N-isopropylnicotinamide] | 1000 to 2000 | > 5
Cc1cc(NC(=O)c2ccccc2)ccc1-c1cnc(N)c(C(=O)NC(C)C)c1 [Example 217, 2-amino-5-(4-benzamido-2-methylphenyl)-N-isopropylnicotinamide] | > 5000 | 0.501 to 1
Cc1cc(NC(=O)N(C)c2ccccc2)ccc1-c1cnc(N)c(C(=O)NC(C)C)c1 [Example 218, 2-amino-N-isopropyl-5-(2-methyl-4-(3-methyl-3-phenylureido)phenyl)nicotinamide] | 1000 to 2000 | > 5
Cc1cc(NC(=O)Oc2ccccc2)ccc1-c1cnc(N)c(C(=O)NC(C)C)c1 [Example 219, phenyl (4-(6-amino-5-(isopropylcarbamoyl)pyridin-3-yl)-3-methylphenyl)carbamate] | 1000 to 2000 | 1 to 2
